These results are taken from patent publication US4618602A, “Amine containing pseudooligosaccharide, pharmaceutical composition and method of use” (Hoechst Aktiengesellschaft, priority 1984, dated 1986).

Molecules are shown by their SMILES.

In series [1] the test system is α-Amylase from the pancreas of pigs. Briefly: Amylase test (inhibition of α-amylase, amylase inhibitor units). The note with it: 1 AIU inhibits two amylase units by 50%, pH 6.9, 37° C. It counts as biochemical. As to the method: One amylase inhibitor unit (AIU) is defined as the amount of inhibitor which is capable of inhibiting two amylase units (AU) to the extent of 50% under the test conditions. By international agreement, one amylase unit is the amount of enzyme which cleaves 1 μEq of glucosidic bonds in starch in one minute. The μ equivalents of glucosidic bonds cleaved are determined photometrically, with dinitrosalicylic acid, as μEq of reducing sugars. The data are calculated as μmol of maltose, determined with the aid of a maltose calibration line.
α-Amylase from the pancreas of pigs and the solutions to be tested are preincubated together in 1.0 ml of 20 mM phosphate buffer, pH 6.9, +10 mM NaCl at 37° C. for 10-20 minutes. The enzymatic reaction is started by addition of 1.0 ml of soluble starch (0.25% strength in the buffer described) according to Zulkowski. After exactly 10 minutes, the reaction istopped with 2.0 ml of dinitrosalicylic acid color reagent (from Boehringer Mannheim: Biochemica-Information II), and the mixture is heated in a boiling waterbath for 5 minutes for color development. After cooling, the extinction is measured against the reagent blank at 546 nm. The 50% inhibition is determined graphically by means of a probability plot in comparison with the non-inhibited enzyme reaction using various amounts of inhibitor.

Another series has as its system blood sugar. Nature of the series: Blood sugar after oral starch load in fasting male Wistar rats. As to conditions: simultaneously with 2 g of starch per kg, fasting male Wistar rats 200-250 g. It is filed as in vivo. An excerpt: The α-glucosidase inhibitor according to the invention is particularly suitable for ora administration. It can be administered as the pure substance, as a physiologically acceptable salt with acids or in the form of a pharmaceutical formulation, using the customary auxiliaries and excipients. Combined use with other medicaments, such as hypoglycemic or lipid-lowering substances, may also be advantageous. Since high molecular weight saccharides are not, or not noticeably, absorbed as such from the digestive tract, no toxicologically unacceptable side effects are to be expected of the substance according to the invention. […] To test the pharmacological action of the AI-5662, fasting male Wistar rats weighing between 200 and 250 g were given an oral administration of the inhbitor AI-5662 according to the invention simultaneously with 2 g of starch per kg of body weight. […] Besides blood glucose regulation, the […] according to the invention can also be used for inhibiting salivary α-amylase. This enzyme effects digestion of starch in the mouth, and the sugar thus formed promotes caries of the teeth. The compound according to the invention can therefore be used to prevent or reduce the development of caries.

The next series has as its system experimental animals. Nature of the series: Oral administration of high doses to experimental animals (tolerability). It counts as in vivo.
Another series in a line: Solubility in water. It is filed as physicochemical.

As for `C[C@H]1O[C@H](O[C@H]2[C@H](O)[C@@H](O)[C@@H](O[C@H]3[C@H](O)[C@@H](O)C(O)O[C@@H]3CO)O[C@@H]2CO)[C@H](O)[C@@H](O)[C@@H]1N[C@H]1C=C(CO)[C@@H](O[C@H]2O[C@H](CO)[C@@H](O[C@H]3O[C@H](C)[C@@H](N[C@H]4C=C(CO)[C@@H](O)[C@H](O)[C@H]4O)[C@H](O)[C@H]3O)[C@H](O)[C@H]2O)[C@H](O)[C@H]1O` (some centres unmarked) [AI-5662], the α-amylase-inhibiting action in series [1] (freeze-dried white amorphous powder of Example 2) was 4×10^4 AIU per mg. In series [1] (purified product after silica gel chromatography), the specific activity is 4×10^4 α-amylase inhibitor units per mg. For the same compound, the “efficacy on blood sugar concentrations” value in the series with blood sugar is given as “The efficacy of the product was demonstrated”. Moreover, the “signs following oral administration even of high doses” value with experimental animals is listed as “no notworthy signs were detected”. Besides, the solubility in water entry in “Solubility in water” is listed as “readily soluble in water”.
